Reference: patent US12240853B2, “Compounds useful in HIV therapy” (GlaxoSmithKline Intellectual Property (No.2) Limited, priority 2019, dated 2025)

What was measured:
[1] = EFdA rat PK studies (SC and IM); assay type: in vivo, Wistar Han rats
Text: A total of seven naïve male Wistar Han rats, 200-250 g, were received from the supplier equipped with a surgically-implanted jugular vein catheter (JVC) for blood sample collection. Following an acclimation period, the animals were assigned to the study based on acceptable health as determined by a staff veterinarian and catheter patency. Animals were placed into two groups of 3 rats per group. Fasting of the animals before or after dosing was not required.
On Day 1 each animal in Group 1 received a single subcutaneous injection of prepared test article at a target dose level of 20 mg/kg and at a dose volume of 0.33 mL/kg. Each animal in Group 2 received a single intramuscular injection of prepared test article into a thigh muscle at a target dose level of 20 mg/kg and at a dose volume of 0.33 mL/kg. The injection sites were shaved prior to dosing and identified with an indelible marker for daily monitoring during the study. The animals were manually restrained for dosing and were not sedated. The dose suspension was mixed well by inversion before each dose to ensure homogeneity. […] In addition, all animals are monitored twice daily by the veterinary staff for clinical abnormalities. […]
The PK plasma samples were analyzed by the Testing Facility to determine the concentration of EFdA using an LC-MS/MS Research Grade Assay (RGA-1) with sensitivity to 0.1 ng/mL. […]

[2] = test system: HIV pseudotyped virus, M184V; assay type: cell-based; details: U373 cells (CD4, CXCR4 or CCR5), luciferase signal after 3 days
[3] = test system: HIV pseudotyped virus (NL4-3 provirus, luciferase reporter), WT; assay: PSV (pseudotyped virus) assay, WT; details: Human immunodeficiency virus 1, NL43, 72 h, read-out: WT IC50
Protocol: A pseudotyped virus assay (PSV) was used to assess the potency of the HIV inhibitor.
The PSV assay was performed by using U373 cells stably transformed to express human CD4, the primary receptor for HIV entry and either human CXCR4 or human CCR5 which are the co-receptors required for HIV entry as target cells for infection. […] This dose-range was applied to U373 cells and the pre-made pseudotyped virus added. The amount of luciferase signal produced after 3 days of culture was used to reflect the level of pseudotyped virus infection. An IC50, or the concentration of inhibitor required to reduce PSV infection by 50% from the infection containing no inhibitor was calculated. […] IC50 values were determined from a 10 point dose response curve using 3-4-fold serial dilution for each compound, which spans a concentration range>1000 fold.
These values are plotted against the molar compound concentrations using the standard four parameter logistic equation: y=((Vmax*x^n)/(K^n+x^n))+Y2

SMILES | Clinical observations and injection site reactions ([1]; 20 mg/kg single SC or IM injection, study period to Day 29) | Detectable duration of exposure of EFdA ([1]; IM and SC administration of 20 mg/kg EFdA) | IC50 [2] [nM] | IC50 [3] [nM]
C#C[C@]1(CO)O[C@@H](n2cnc3c(N)nc(F)nc32)C[C@@H]1O [EFdA, (2R,3S,5R)-5-(6-amino-2-fluoro-9H-purin-9-yl)-2-ethynyl-2-(hydroxymethyl)tetrahydrofuran-3-ol] | No abnormal clinical observations and no injection site reactions | less than 8 days |  | 
C#C[C@]1(COC(=O)CCCC)O[C@@H](n2cnc3c(NC(=O)CCCCCCCCCCCCC)nc(F)nc32)C[C@@H]1O [Example 27, ((2R,3S,5R)-2-ethynyl-5-(2-fluoro-6-tetradecanamido-9H-purin-9-yl)-3-hydroxytetrahydrofuran-2-yl)methyl Pentanoate] |  |  | 46 | 8
C#C[C@]1(COC(=O)[C@H]2CC[C@H](CCCCC)CC2)O[C@@H](n2cnc3c(N)nc(F)nc32)C[C@@H]1O [Example 5, ((2R,3S,5R)-5-(6-amino-2-fluoro-9H-purin-9-yl)-2-ethynyl-3-hydroxytetrahydrofuran-2-yl)methyl trans-4-pentylcyclohexane-1-carboxylate] |  |  | 7 | 1
C#C[C@]1(COC(=O)CNC(=O)CCCCCC)O[C@@H](n2cnc3c(N)nc(F)nc32)C[C@@H]1O [Example 34, ((2R,3S,5R)-5-(6-amino-2-fluoro-9H-purin-9-yl)-2-ethynyl-3-hydroxytetrahydrofuran-2-yl)methyl Heptanoylglycinate] |  |  | 25 | 4
C#C[C@]1(COC(=O)CCCC)O[C@@H](n2cnc3c(N)nc(F)nc32)C[C@@H]1OC(=O)CCCCCCCC [Example 22, (2R,3S,5R)-5-(6-amino-2-fluoro-9H-purin-9-yl)-2-ethynyl-2-((pentanoyloxy)methyl)tetrahydrofuran-3-yl Nonanoate] |  |  | 35 | 7
C#C[C@]1(COC(=O)C(CCC)CCC)O[C@@H](n2cnc3c(N)nc(F)nc32)C[C@@H]1OC(=O)CCCCCCCCCCC [Example 29, (2R,3S,5R)-5-(6-amino-2-fluoro-9H-purin-9-yl)-2-ethynyl-2-(((2-propylpentanoyl)oxy)methyl)tetrahydrofuran-3-yl Dodecanoate] |  |  | 1350 | 238
C#C[C@]1(COC(=O)Cc2ccccc2)O[C@@H](n2cnc3c(N)nc(F)nc32)C[C@@H]1O [Example 3, [(2R,3S,5R)-5-(6-amino-2-fluoro-9H-purin-9-yl)-2-ethynyl-3-hydroxyoxolan-2-yl]methyl 2-phenylacetate] |  |  | 10 | 2
C#C[C@]1(COC(=O)CCCC)O[C@@H](n2cnc3c(N)nc(F)nc32)C[C@@H]1OC(=O)CCCCCCCCCC [Example 21, (2R,3S,5R)-5-(6-amino-2-fluoro-9H-purin-9-yl)-2-ethynyl-2-((pentanoyloxy)methyl)tetrahydrofuran-3-yl Undecanoate] |  |  | 44 | 7
C#C[C@]1(COC(=O)CCCC)O[C@@H](n2cnc3c(N)nc(F)nc32)C[C@@H]1OC(=O)CC [Example 24, ((2R,3S,5R)-5-(6-amino-2-fluoro-9H-purin-9-yl)-2-ethynyl-3-(propionyloxy)tetrahydrofuran-2-yl)methyl Pentanoate] |  |  | 351 | 66
C#C[C@]1(COC(=O)CCCCCC)O[C@@H](n2cnc3c(N)nc(F)nc32)C[C@@H]1OC(=O)CCCCCC [Example 16, (2R,3S,5R)-5-(6-amino-2-fluoro-9H-purin-9-yl)-2-ethynyl-2-((heptanoyloxy)methyl)tetrahydrofuran-3-yl Heptanoate] |  |  | 31 | 8
C#C[C@]1(COC(=O)CCCC(=O)OC(COC(=O)CCCCCC)COC(=O)CCCCCC)O[C@@H](n2cnc3c(N)nc(F)nc32)C[C@@H]1O [Example 12, ((2R,3S,5R)-5-(6-amino-2-fluoro-9H-purin-9-yl)-2-ethynyl-3-hydroxytetrahydrofuran-2-yl)methyl (1,3-bis(heptanoyloxy)propan-2-yl) glutarate] |  |  | 151 | 34
C#C[C@]1(COC(=O)CCCCCCCCC)O[C@@H](n2cnc3c(N)nc(F)nc32)C[C@@H]1OC(=O)OCC [Example 15, ((2R,3S,5R)-5-(6-amino-2-fluoro-9H-purin-9-yl)-3-((ethoxycarbonyl)oxy)-2-ethynyltetrahydrofuran-2-yl)methyl Decanoate] |  |  | 328 | 77
C#C[C@]1(COC(=O)CCCC(=O)OC(COC(=O)CCCCCCCCCCCCC)COC(=O)CCCCCCCCCCCCC)O[C@@H](n2cnc3c(N)nc(F)nc32)C[C@@H]1O [Example 13, ((2R,3S,5R)-5-(6-amino-2-fluoro-9H-purin-9-yl)-2-ethynyl-3-hydroxytetrahydrofuran-2-yl)methyl 1,3-bis(tetradecanoyloxy)propan-2-yl) glutarate] |  |  | 3610 | 508
